The source of these data is publication PMC9814091, “The making of a potent L-lactate transport inhibitor” (Communications Chemistry, 2021).

In general, Ki refers to a measure of affinity in units of concentration, obtained from inhibition or displacement.

Structures are written as SMILES. Read-outs that look alike come from different tables or passages of the source.

For assay [1], the target named is T1, SfMCT (Syntrophobacter fumaroxidans, UniProt A0LNN5).
T1 construct: expressed in transfected cells; host or cells: E. coli JA202 (MC4100 glcA::cat lldP::kan) transformed with pEXT20-SfMCT-3C-10His
T1 sequence (A0LNN5 1-412): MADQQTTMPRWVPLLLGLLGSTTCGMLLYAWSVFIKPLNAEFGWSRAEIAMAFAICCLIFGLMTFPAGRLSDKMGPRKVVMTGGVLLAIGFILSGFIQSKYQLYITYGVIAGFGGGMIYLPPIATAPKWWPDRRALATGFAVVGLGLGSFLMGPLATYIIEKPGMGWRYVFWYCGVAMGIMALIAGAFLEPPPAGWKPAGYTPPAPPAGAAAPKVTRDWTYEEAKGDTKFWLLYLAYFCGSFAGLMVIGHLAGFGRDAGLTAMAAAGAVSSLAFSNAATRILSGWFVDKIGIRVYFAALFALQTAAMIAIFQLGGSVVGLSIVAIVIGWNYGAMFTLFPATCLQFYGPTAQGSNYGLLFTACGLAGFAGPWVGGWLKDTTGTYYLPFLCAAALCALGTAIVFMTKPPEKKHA
Put plainly: cell-based. As to conditions: for times more potent than BA (starting compound): ratio of Ki values versus BA. The assay is classed as cell-based. The source says: The previously characterized ligand binding site provides space to accommodate molecules that are larger than TSA. […] Only molecules containing one carboxylate-group were considered (i.e., monocarboxylates) as R280 (TM8) is the only positively-charged residue in the ligand binding site region. […] The binding site also contains hydrophobic and aromatic residues, which can be involved in hydrophobic and π-stacking interactions with bound molecules. Therefore, the focus of the screen was set on aromatic monocarboxylates, which are summarized in Supplementary Fig. 1. To evaluate the inhibitory effect of the selected molecules, an inhibition assay was set up where the transport of [^14C]L-lactate through SfMCT was measured in the absence and presence of different inhibitors at decreasing concentrations. In a first step, the inhibitory effects of BA, as well as hydroxylated and methylated BA derivatives on L-lactate transport, were investigated at a concentration of 500 µM (Fig. 1A, red).
(§1) Uptake experiments were done as described previously[6],[40]. Overnight precultures of E. coli JA202 (MC4100 glcA::cat lldP::kan)[42], which were transformed with a plasmid carrying SfMCT (pEXT20-SfMCT-3C-10His), were diluted 1:200 into LB-medium supplemented with 100 μg/ml ampicillin. Cultures were grown at 37 °C and 180 r.p.m. in an incubator shaker (Multitron, Infors HT). At OD600 ~0.5, isopropyl-β-D-thiogalactopyranoside was added to the culture to a final concentration of 250 µM to induce SfMCT expression. In the case of E. coli MC4100 (DSM 6574, German Collection of Microorganisms and Cell Cultures), an overnight preculture was diluted 1:200 into LB-medium supplemented with 50 μg/ml streptomycin and grown at 37 °C and 180 r.p.m. in an incubator shaker (Multitron, Infors HT). Bacteria were harvested 4 h post-induction (E. coli JA202) or 6 h post-inoculation (E. coli MC4100) (5200 × g, 10 min, room temperature). The supernatant was discarded and the bacteria were gently resuspended in uptake buffer (20 mM Bis-Tris propane-HCl (pH 6.7), 250 mM KCl). The density of the bacteria suspension was adjusted to OD600 12. Transport experiments were done in a reaction volume of 50 µl, which consisted of 20 µl cell-suspension (2.4 × 10^8 bacteria), 10 µl substrate master mix (67 µM sodium L-lactate spiked with [14C(U)] L-lactic acid sodium salt ([^14C]L-lactate, American Radiolabeled Chemicals) to a specific activity of 0.15 Ci/mmol) and 20 µl monocarboxylate inhibitor solution. […] All monocarboxylate inhibitors were purchased from Merck (i.e., SigmaAldrich) with the exception of 6-methyl-salicylate (6MSA) that was purchased from Fluorochem. Uptake experiments were performed in 2 ml reaction tubes (Eppendorf) at 30 °C under agitation (1000 r.p.m., Thermomixer compact, Eppendorf). After 30 min, reactions were stopped by adding 900 μl stop buffer (20 mM HEPES-NaOH (pH 7.5), 150 mM NaCl) followed by centrifugation (21,000 × g, 4 min, room temperature). Pelleted bacteria were then washed two times with 900 μl stop buffer to remove free radioligand. Finally, bacteria were lysed using 50 μl 5% (w/v) sodium dodecylsulfate and transferred into a 96-well plate (Optiplate, PerkinElmer). 150 µl scintillation cocktail (MicroScint 40, PerkinElmer) were added to each well before measuring each well for 2 min with a scintillation counter (TopCount NXT, PerkinElmer). For data analysis Prism6 (GraphPad Software) was used.

Assay [2] concerns the target T1, SfMCT. On the set-up: method as in PMID 31201333. As to conditions: cited from earlier work.
In assay [3] the target is T1, SfMCT. Briefly: Transport assay with radiolabeled monocarboxylates as potential SfMCT substrates. The assay is classed as cell-based. Particulars: 40 µM 14C-labeled compound, 0.1 µCi per reaction.
Assay [4] has as its system E. coli L-lactate permeases (i.e., LldP and GlcA). Briefly: [14C]L-lactate transport into E. coli MC4100 (test for a protonophoric effect). The class given is cell-based. As to conditions: 100 µM compound.
Assay [5] addresses T2, SfMCT Y331F mutant (Syntrophobacter fumaroxidans, UniProt A0LNN5, Y331F).
T2 construct: expressed in transfected cells; host or cells: E. coli JA202 (inferred: same uptake protocol as wild type)
The assay is classed as cell-based. Particulars: 25 µM 1OHN2C; 10 µM N2C, 3PP, 2M3PP. On the procedure: as §1, with “Finally, bacteria were lysed using 50 μl 5% (w/v) sodium dodecylsulfate and transferred into a 96-well plate (Optiplate, PerkinElmer). 150 µl scintillation cocktail (MicroScint 40, PerkinElmer) were added to each well before measuring each well for 2 min with a scintillation counter (TopCount NXT, PerkinElmer). For data analysis Prism6 (GraphPad Software) was used.” left out

[6] abbreviates: inhibitor 100 µM, methylated SA derivatives and 3OH4MBA (Fig. 1A, blue).
Where [7] appears, read: inhibitor 10 µM, hydroxylated and methylated 3PP derivatives (Fig. 1A, magenta).
[8] abbreviates: inhibitor 500 µM, BA and hydroxylated and methylated BA derivatives (Fig. 1A, red).
[9] abbreviates: inhibitor 25 µM, naphthoate derivatives (Fig. 1A, orange).
Setting [10] is: [14C]L-lactate uptake, SfMCT-expressing E. coli JA202, pH 6.7, 30 °C, 30 min, read-out: Ki (inhibition of L-lactate transport).

T2 sequence (A0LNN5 whole entry Y331F): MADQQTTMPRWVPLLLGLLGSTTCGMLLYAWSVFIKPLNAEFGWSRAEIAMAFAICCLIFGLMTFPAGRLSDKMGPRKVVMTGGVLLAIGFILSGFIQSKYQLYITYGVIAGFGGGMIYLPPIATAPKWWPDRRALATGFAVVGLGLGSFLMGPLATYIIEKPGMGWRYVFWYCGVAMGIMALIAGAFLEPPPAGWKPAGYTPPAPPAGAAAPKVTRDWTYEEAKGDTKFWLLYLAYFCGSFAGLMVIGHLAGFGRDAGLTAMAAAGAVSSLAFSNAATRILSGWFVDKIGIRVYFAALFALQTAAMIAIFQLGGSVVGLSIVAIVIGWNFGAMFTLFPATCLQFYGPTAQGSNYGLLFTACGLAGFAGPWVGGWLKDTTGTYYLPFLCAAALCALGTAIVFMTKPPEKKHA

Regarding `Cc1ccc(C(=O)O)cc1O` [3OH4MBA, 3-hydroxy-4-methyl-benzoate], the “inhibitory effect on L-lactate transport in the screen” value (shortened to “inhibitory effect … in the screen”) in assay [1] (setting [6]) is on record as “strongly reduced inhibition of L-lactate transport”.

`O=C(O)c1ccccc1` [BA, benzoate]: the Ki in assay [1] stood at 431 µM.

Take `O=C(O)c1ccccc1S` [TSA, thiosalicylate]: the “transport of the compound by SfMCT” value in assay [2] is “non-transported”.

`O=C(O)CCc1cccc(O)c1` [3OH3PP, 3-(3-hydroxyphenyl)-propionate]: the “inhibitory effect … in the screen” value in assay [1] (setting [7]) was “strongest L-lactate transport reduction among the tested hydroxylated derivatives”.

As for `O=C(O)c1ccccc1O` [SA, salicylate], in assay [3], the “transport of the radiolabeled compound by SfMCT” value is “does not transport”. This molecule came in with a Ki in assay [1] of 362 µM. Also, in assay [1] (setting [8]), the “inhibitory effect … in the screen” value was “strongest decrease in L-lactate transport activity”.

As to `O=C(O)CCc1ccccc1` [3PP, 3-phenylpropionate], in assay [3], the “transport of the radiolabeled compound by SfMCT” value was “does not transport”. In assay [1], the Ki came out at 0.812 µM and the “times more potent than BA (starting compound)” value (shortened to “times more potent than BA”) is given as ~ 530 times. Also, the “inhibitory effect on L-lactate transport in the molecular ruler experiment” value in assay [1] (BA, PA, 3PP and 4PB compared (Fig. 1A, black)) is recorded as “most potent inhibitor”. Besides, in assay [4], the “effect on [14C]L-lactate transport activity of E. coli MC4100” value (shortened to “effect … of E. coli MC4100”) was “no significant reduction”.

In assay [1], `O=C(O)c1ccc2ccccc2c1O` [1OHN2C, 1-hydroxy-2-naphthoate] yielded an inhibitory constant (Ki) of 16.2 µM. Besides, in assay [1] (setting [9]), the “inhibitory effect … in the screen” value is recorded as “strongest reduction of L-lactate transport among the tested naphthoate derivatives”. Also, the “effect … of E. coli MC4100” value in assay [4] is on record as “no significant reduction”. The “reduction of L-lactate transport inhibition by the Y331F mutation versus wild type” value in assay [5] is listed as ~ 2 fold.

For `O=C(O)c1ccc2ccccc2c1` [N2C, 2-naphthoate], the Ki in assay [1] (setting [10]) turned out to be 2.4 µM. Besides, the “inhibitory effect … in the screen” value in assay [1] (setting [9]) is “strongest reduction of L-lactate transport among the tested naphthoate derivatives”. Further, the “effect … of E. coli MC4100” value in assay [4] was “no significant reduction”. The “reduction of L-lactate transport inhibition by the Y331F mutation versus wild type” value in assay [5] is given as ~ 2 fold.

As for `N#CC(C#N)=NNc1cccc(Cl)c1` [CCCP, carbonyl cyanide 3-chlorophenylhydrazone, reference compound], in assay [4], the “effect … of E. coli MC4100” value is recorded as “reduced the uptake activity almost”.

As for `Cc1ccccc1CCC(=O)O` [2M3PP, 3-(2-methylphenyl)-propionate], the Ki in assay [1] (setting [10]) is 0.469 µM. In assay [1] (setting [7]), the “inhibitory effect … in the screen” value is listed as “strongest inhibitory effect on L-lactate transport among the tested methylated derivatives”. In addition, the “times more potent than BA” value in assay [1] is around 1000 times. Also, the “effect … of E. coli MC4100” value in assay [4] is listed as “no significant reduction”. Besides, the “reduction of L-lactate transport inhibition by the Y331F mutation versus wild type” value in assay [5] is listed as ~ 2 fold.

Molecule `O=C(O)/C=C/c1ccccc1` [CA, trans-cinnamate] yielded a Ki in assay [1] of 2.5 µM.

In turn, `Cc1ccc(C(=O)O)c(O)c1` [4MSA, 4-methyl-salicylate] showed a Ki in assay [1] of 24.4 µM. In addition, the “inhibitory effect … in the screen” value in assay [1] (setting [6]) is given as “strongest reduction of L-lactate transport among the methylated SA-derivatives”.

For the molecule `Cc1ccc(C(=O)O)cc1` [4MBA, 4-methyl-benzoate], in assay [1], the Ki was 13.4 µM and the “times more potent than BA” value is ~ 30 times. Also, in assay [1] (setting [8]), the “inhibitory effect … in the screen” value is recorded as “strongest reduction of L-lactate transport activity”.
